This note sets out measurements from patent US20240239806A1, “COMPOUNDS, COMPOSITIONS AND METHODS OF TREATING DISORDERS” (Chengdu Anticancer Bioscience, Ltd., priority 2021, published 2024).

One may read the EC50 as the concentration giving half of the maximal effect. Higher therefore signals weaker potency.

The first assay concerns SW480. In words: MECP in cancer cell line. Format: cell-based. The conditions noted are these: Homo sapiens. As for the experimental part:
(§1) Six lung cancer cell lines (NCI-H23, NCI-H460, NCI-H596, NCI-H2170, Calu-6 and A549), two colon cancer cell lines (HCT116 and SW460), one breast cancer cell line MDA-MB-231, one gastric cancer cell line NCI-N87, one prostate cancer cell line DU145, one cervical cancer cell line Hela, and one glioblastoma cell line T98G were obtained from ATCC. The T2 HCC cell line was derived from a mouse liver cancer model initiated by a transgene of MYC. All cell lines were cultured in DMEM (Gibco, Cleveland, TN, USA) supplemented with 5% fetal bovine serum (Gibco), penicillin (100 U/mL)—streptomycin (100 μg/mL) (Gibco, Cat. No. 15140-122), 2 mM L-glutamine (Gibco, 200 mM solution, Cat. No. 25030081), and 1 mM sodium pyruvate (Gibco, 100 mM solution, Cat. No. 11360070) at 37° C. in a humidified incubator that was maintained at 5% CO2.
(§2) We have previously developed a mechanism-informed phenotypic screening assay to identify novel antimitotic agents. Equipped with a prior understanding of the versatile functions of the chromosomal passenger protein (CPP) complex in orchestrating karyokinesis and cytokinesis, the screening assay is to score for phenotypes typically seen when the CPP complex is disabled. Specifically, the parameters for a positive hit are a temporary elevation of mitotic index (MI) at 24 hours of drug treatment and an accumulation of polyploid cells at 48 hours of drug treatment, indicative of mitotic arrest and cytokinetic failure respectively. These parameters exclude compounds that elicit only a prolonged arrest of cells in mitosis, a phenotype typically provoked by spindle toxins. The screening procedure is briefly summarized here. RPEMYC^H2B-GFP cells engineered to express a Histone 2B-EGFP fusion protein were passaged as batches of 96-well plates, 18-24 hours before exposure to the chemical compounds of the present disclosure at concentrations from 1 nM to 30 μM. At 24, 48 or 72 hours after initiation of treatment, cells were analyzed for either an arrest in mitosis or a change in DNA content by GE IN-Cell Analyzer 2000. As set forth in Table 2 below, a value of greater than or equal to 1 nM and less than or equal to 1.0 μM is marked “A”; a value greater than 1.00 μM and less than or equal to 10.0 μM is marked “B”; a value greater than 10.0 μM and less than or equal to 30.0 μM is marked “C”; and a value greater than 30.0 μM is marked “D.”
Turning to `COc1cc(NC(C)=O)cc(Oc2ccnc3cc(OC)c(OC)cc23)c1` [Compound 27, N-(3-((6,7-dimethoxyquinolin-4-yl)oxy)-5-methoxyphenyl)acetamide], the minimal effective concentration lay in the range of 0.001 to 1 µM.

The subject of the next assay is T2 HCC. In words: MECP in cancer cell line. Type of assay: cell-based. The note with it: Mus musculus. On the procedure: as §1, §2
In the case of `COc1cc(NC(C)=O)cc(Oc2ccnc3cc(OC)c(OC)cc23)c1` [Compound 27, N-(3-((6,7-dimethoxyquinolin-4-yl)oxy)-5-methoxyphenyl)acetamide], the minimal effective concentration fell in the range of 0.001 to 1 µM.

The subject of another assay is Hela. In words: MECP in cancer cell line. Format: cell-based. The conditions noted are these: Homo sapiens. As for the experimental part: as §1, §2
In the case of `COc1cc(NC(C)=O)cc(Oc2ccnc3cc(OC)c(OC)cc23)c1` [Compound 27, N-(3-((6,7-dimethoxyquinolin-4-yl)oxy)-5-methoxyphenyl)acetamide], the minimal effective concentration was 0.001 to 1 µM.

The next assay deals with MDA-MB-231. Briefly: MECP in cancer cell line. The note with it: Homo sapiens. Type of assay: cell-based. On the procedure: as §1, §2
As to `COc1cc(NC(C)=O)cc(Oc2ccnc3cc(OC)c(OC)cc23)c1` [Compound 27, N-(3-((6,7-dimethoxyquinolin-4-yl)oxy)-5-methoxyphenyl)acetamide], the minimal effective concentration was 0.001 to 1 µM.

The subject of the next assay is HCT116. In words: MECP in cancer cell line. Type of assay: cell-based. The note with it: Homo sapiens, HCT-116. As for the experimental part: as §1, §2
With `COc1cc(NC(C)=O)cc(Oc2ccnc3cc(OC)c(OC)cc23)c1` [Compound 27, N-(3-((6,7-dimethoxyquinolin-4-yl)oxy)-5-methoxyphenyl)acetamide], the minimal effective concentration lay within 0.001 to 1 µM.

Another assay concerns A549. Briefly: MECP in cancer cell line. Type of assay: cell-based. The note with it: Homo sapiens. On the procedure:
as §1, §2
For the compound `COc1cc(NC(C)=O)cc(Oc2ccnc3cc(OC)c(OC)cc23)c1` [Compound 27, N-(3-((6,7-dimethoxyquinolin-4-yl)oxy)-5-methoxyphenyl)acetamide], the minimal effective concentration lay in the range of 0.001 to 1 µM.

Another assay deals with SW480. In words: MTT assay of cellular proliferation. Type of assay: cell-based. The conditions noted are these: Homo sapiens, 50% inhibition of cellular proliferation. As for the experimental part: as §1
(§3) The MTT assay measures cellular metabolic activity as a proxy for cell viability and involves the conversion of the water-soluble yellow dye MTT [3-(4,5-dimethylthiazol-2-yl)-2,5-diphenyltetrazolium bromide] into an insoluble purple formazan by the action of mitochondrial reductase. Formazan is then solubilized and its concentration is determined by measuring the optical density (OD) value at a wavelength of 570 nm. The value is in proportional to the number of live cells with excellent linearity up to ˜10^6 cells per well. The MTT assay was used to determine the EC50 value, the concentration of a compound that leads to 50% inhibition of cellular proliferation. Briefly, cells were split when growing to the mid-Log phase. Cells in 100 μL of culture medium were seeded into each well of 96-well microplates and cultivated for 15-24 hours to reach a confluence of 20-30% and were then exposed to drugs at concentrations ranging from 1 nM to 30 μM. At the endpoint, 20 μL of a MTT stock solution in DMSO (5 mg/mL) was added to each well that contains 100 μL of DMEM. The microplates were left in the cell culture incubator for 3-4 h before subjected to solubilization and determination of formazan at A570 in a microplate reader (BioTek ELX808iu). […] Therefore, these compounds might hold a broad utility in the treatment of a large variety of human malignancies.
For orientation: Formazan colour is commonly taken as a measure of viable cells.
`COc1cc(NC(C)=O)cc(Oc2ccnc3cc(OC)c(OC)cc23)c1` [Compound 27, N-(3-((6,7-dimethoxyquinolin-4-yl)oxy)-5-methoxyphenyl)acetamide] came in with an EC50 of 1 to 1000 nM.

A further assay concerns T2 HCC. In words: MTT assay of cellular proliferation. Format: cell-based. The conditions noted are these: Mus musculus, 50% inhibition of cellular proliferation. As for the experimental part:
as §1, §3
For `COc1cc(NC(C)=O)cc(Oc2ccnc3cc(OC)c(OC)cc23)c1` [Compound 27, N-(3-((6,7-dimethoxyquinolin-4-yl)oxy)-5-methoxyphenyl)acetamide], the EC50 was in the range of 1 to 1000 nM.

The next assay deals with Hela. Briefly: MTT assay of cellular proliferation. Type of assay: cell-based. The note with it: Homo sapiens, 50% inhibition of cellular proliferation. As for the experimental part:
as §1, §3
As to `COc1cc(NC(C)=O)cc(Oc2ccnc3cc(OC)c(OC)cc23)c1` [Compound 27, N-(3-((6,7-dimethoxyquinolin-4-yl)oxy)-5-methoxyphenyl)acetamide], the EC50 is 1 to 1000 nM.

For another assay, the system named is MDA-MB-231. Briefly: MTT assay of cellular proliferation. Type of assay: cell-based. The conditions noted are these: Homo sapiens; MDA-MB-231, MTT, 50% inhibition of cellular proliferation. As for the experimental part: as §1, §3
Turning to `COc1cc(NC(C)=O)cc(Oc2ccnc3cc(OC)c(OC)cc23)c1` [Compound 27, N-(3-((6,7-dimethoxyquinolin-4-yl)oxy)-5-methoxyphenyl)acetamide], the EC50 is 1 to 1000 nM.

The next assay has as its system HCT116. Briefly: MTT assay of cellular proliferation. Format: cell-based. The note with it: Homo sapiens, HCT-116, 50% inhibition of cellular proliferation. On the procedure:
as §1, §3
With `COc1cc(NC(C)=O)cc(Oc2ccnc3cc(OC)c(OC)cc23)c1` [Compound 27, N-(3-((6,7-dimethoxyquinolin-4-yl)oxy)-5-methoxyphenyl)acetamide], the EC50 lay within 1 to 1000 nM.

The test system of a further assay is NCI-N87. In words: MTT assay of cellular proliferation. Format: cell-based. The conditions noted are these: Homo sapiens, 50% inhibition of cellular proliferation. As for the experimental part:
as §1, §3
The compound `COc1cc(NC(C)=O)cc(Oc2ccnc3cc(OC)c(OC)cc23)c1` [Compound 27, N-(3-((6,7-dimethoxyquinolin-4-yl)oxy)-5-methoxyphenyl)acetamide] gave an EC50 of 1 to 1000 nM.

Another assay relates to NCI-H23. In words: MTT assay of cellular proliferation. Format: cell-based. The conditions noted are these: Homo sapiens, 50% inhibition of cellular proliferation. As for the experimental part:
as §1, §3
`COc1cc(NC(C)=O)cc(Oc2ccnc3cc(OC)c(OC)cc23)c1` [Compound 27, N-(3-((6,7-dimethoxyquinolin-4-yl)oxy)-5-methoxyphenyl)acetamide] came in with an EC50 of 1 to 1000 nM.

The test system of the next assay is A549. Briefly: MTT assay of cellular proliferation. Format: cell-based. The conditions noted are these: Homo sapiens, 50% inhibition of cellular proliferation. As for the experimental part:
as §1, §3
The compound `COc1cc(NC(C)=O)cc(Oc2ccnc3cc(OC)c(OC)cc23)c1` [Compound 27, N-(3-((6,7-dimethoxyquinolin-4-yl)oxy)-5-methoxyphenyl)acetamide] came in with an EC50 of 1 to 1000 nM.

The test system of another assay is RPEMYC^H2B-GFP cells. Briefly: Phenotypic screening assay (mitotic arrest, polyploidy). Type of assay: cell-based. The conditions noted are these: 1 nM to 30 μM. The gist of the method:
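RPE cells expressing MYC and H2B-EGFP treated with compound at 1 nM–30 μM; mitotic index scored at 24 h and polyploidy (DNA content) at 48 h by automated imaging, with reads at 24, 48 or 72 h. Hits show transient mitotic arrest followed by polyploid accumulation.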
For the compound `COc1cc(NC(C)=O)cc(Oc2ccnc3cc(OC)c(OC)cc23)c1` [Compound 27, N-(3-((6,7-dimethoxyquinolin-4-yl)oxy)-5-methoxyphenyl)acetamide], the “Min. Effective conc. for Polyploidy (≥5%)” value is “B (a value greater than 1.00 μM and less than or equal to 10.0 μM)”; the “Mitotic Arrest (≥5%)” value was “B (a value greater than 1.00 μM and less than or equal to 10.0 μM)”; the “Proliferative arrest (>50%)” value is “B (a value greater than 1.00 μM and less than or equal to 10.0 μM)”.

The assay is the same for the next values; noted with them: 1 nM to 30 μM, listed as 23.
With `COc1cc(NC(C)=O)cc(Oc2ccnc3cc(OC)c(OC)cc23)c1` [Compound 27, N-(3-((6,7-dimethoxyquinolin-4-yl)oxy)-5-methoxyphenyl)acetamide], the “Along with Cell Death” value was “B (a value greater than 1.00 μM and less than or equal to 10.0 μM)”.

Still in this assay, the particulars now being: 1 nM to 30 μM, read-out: Min. Effective conc. for Polyploidy (≥5%).
Regarding `COc1cc(NC(C)=O)cc(Oc2ccnc3cc(OC)c(OC)cc23)c1` [Compound 27, N-(3-((6,7-dimethoxyquinolin-4-yl)oxy)-5-methoxyphenyl)acetamide], the minimal effective concentration lay within 0.001 to 1 µM.

Still in this assay, the particulars now being: 1 nM to 30 μM, read-out: Mitotic Arrest (≥5%).
Turning to `COc1cc(NC(C)=O)cc(Oc2ccnc3cc(OC)c(OC)cc23)c1` [Compound 27, N-(3-((6,7-dimethoxyquinolin-4-yl)oxy)-5-methoxyphenyl)acetamide], the minimal effective concentration was in the range of 0.001 to 1 µM.

The assay is the same for the next values; noted with them: 1 nM to 30 μM, read-out: Proliferative arrest (>50%).
As for `COc1cc(NC(C)=O)cc(Oc2ccnc3cc(OC)c(OC)cc23)c1` [Compound 27, N-(3-((6,7-dimethoxyquinolin-4-yl)oxy)-5-methoxyphenyl)acetamide], the IC50 was 1 to 1000 nM.

In the next assay the test system is NCI-N87. In words: MECP in cancer cell line. Format: cell-based. The conditions noted are these: Homo sapiens. On the procedure: as §1, with “CO2. […]” for “CO2.”
Compound `COc1cc(NC(C)=O)cc(Oc2ccnc3cc(OC)c(OC)cc23)c1` [Compound 27, N-(3-((6,7-dimethoxyquinolin-4-yl)oxy)-5-methoxyphenyl)acetamide] gave a minimal effective concentration of 0.001 to 1 µM.

The next assay concerns NCI-H23. Briefly: MECP in cancer cell line. Type of assay: cell-based. The conditions noted are these: Homo sapiens. As for the experimental part:
as §1, with “CO2. […]” for “CO2.”
`COc1cc(NC(C)=O)cc(Oc2ccnc3cc(OC)c(OC)cc23)c1` [Compound 27, N-(3-((6,7-dimethoxyquinolin-4-yl)oxy)-5-methoxyphenyl)acetamide] registered a minimal effective concentration of 0.001 to 1 µM.
